Series [1] can be described thus: Viability of Raji cells in the EBV-EA activation assay. The format is cell-based. Particulars: human, Raji cells; concentration 1000 mol ratio to TPA (32 pmol/ml); value in parentheses; read-out: viability percentage of Raji cells. The source says: (§1) We finally carried out in vitro functional analysis of the purified valerianol against tumor promoter activity, since there were no reports on its physiological functions. As such a screening study for anti-tumor promoters, valerianol and other several sesquiterpenes, β-eudesmol, elemol, α-selinene, and γ-amorphene, were examined for their inhibitory effects on induction of Epstein-Barr virus-early antigen (EBV-EA) activation in Raji cells by 12-O-tetradecanoylphorbol-13-acetate (TPA)[42].
(§2) This assay was carried out by the method described.

Another series concerns Ralstonia solanacearum. Particulars: extracted from Chinese agarwood; cited from earlier work.
The next series concerns Staphylococcus aureus. Also on record: method as in PMID 26927047. Particulars: extracted from Chinese agarwood; cited from earlier work.
Series [2] concerns Epstein-Barr virus-early antigen (EBV-EA) activation in Raji cells by TPA. Kind of series: Inhibitory effects on induction of EBV-EA activation by TPA in Raji cells. In kind it is cell-based.
From the text: as §1, §2

The subject of a further series is Raji cells. As to the kind of experiment: Viability of Raji cells in the EBV-EA activation assay. In kind it is cell-based. Particulars: concentration 1000 mol ratio to TPA (32 pmol/ml); value in parentheses.
From the text: as §1, §2

Where [3] appears, read: concentration 10 mol ratio to TPA (32 pmol/ml).
The mark [4] stands for this setting: concentration 100 mol ratio to TPA (32 pmol/ml).
Setting [5] is: concentration 500 mol ratio to TPA (32 pmol/ml).
[6] abbreviates: concentration 1000 mol ratio to TPA (32 pmol/ml).

For `C[C@@H]1CCC=C2CC[C@@H](C(C)(C)O)C[C@]21C` (relative stereo) [valerianol], the viability at 32 nmol/ml in series [1] was 60%. For the same compound, in the series on Ralstonia solanacearum, the “antibacterial activity against Ralstonia solanacearum (in words)” value was “exhibited antibacterial activities”. Besides, the “antibacterial activity against Staphylococcus aureus (in words)” value with Staphylococcus aureus is recorded as “exhibited antibacterial activities”. Moreover, the “inhibitory activity on induction of EBV-EA activation by TPA (in words)” value in series [2] is on record as “strongest inhibitory activity among the examined sesquiterpenes”. In addition, the “EBV-EA activation, percentage relative to the positive control value (100%)” value was found to be 95.6 ± 0.6% in series [2] (setting [3]), 70.0 ± 2.5% in series [2] (setting [4]), 46.5 ± 1.5% in series [2] (setting [5]) and 2.1% in series [2] (setting [6]).

Take `C=C1CCC[C@]2(C)CC[C@@H](C(C)(C)O)C[C@@H]12` [β-eudesmol]: the viability at 32 nmol/ml in series [1] was determined as 60%. For the same compound, the “EBV-EA activation, percentage relative to the positive control value (100%)” value in series [2] (setting [3]) was 97.0 ± 0.5%; in series [2] (setting [4]), 71.1 ± 2.2%; in series [2] (setting [5]), 50.4 ± 1.6%; in series [2] (setting [6]), 3.6%.

As to `C=CC1(C)CCC(C(C)(C)O)CC1C(=C)C` (stereo not drawn) [elemol], the viability at 32 nmol/ml in series [1] was 70%. Also, the “EBV-EA activation, percentage relative to the positive control value (100%)” value is 100 ± 0.5% in series [2] (setting [3]), 73.0 ± 2.4% in series [2] (setting [4]), 52.6 ± 1.3% in series [2] (setting [5]) and 5.8% in series [2] (setting [6]).

Consider `C=C(C)[C@@H]1CC[C@@]2(C)CCC=C(C)[C@@H]2C1` [α-selinene], for which the “viability percentage of Raji cells” value in the series on Raji cells was determined as 60%. Moreover, the “EBV-EA activation, percentage relative to the positive control value (100%)” value stood at 74.4 ± 2.7% in series [2] (setting [4]), 54.2 ± 1.5% in series [2] (setting [5]) and 7.3% in series [2] (setting [6]).

For the compound `C=C1CC[C@@H](C(C)C)[C@H]2C=C(C)CC[C@@H]12` [γ-amorphene], the “viability percentage of Raji cells” value in the series on Raji cells was 60%. Besides, the “EBV-EA activation, percentage relative to the positive control value (100%)” value in series [2] (setting [3]) was found to be 100 ± 0.4%; in series [2] (setting [4]), 76.1 ± 2.5%; in series [2] (setting [5]), 55.6 ± 1.7%; in series [2] (setting [6]), 8.1%.

As usually defined, the viability is a read-out of living cells in per cent, often relative to untreated cells.

Source of the values: publication PMC6102311 (Scientific Reports, 2018).
